Test results from US9738634B2, “Heterocyclic amide compound and herbicide” (SYNGENTA PARTICIPATIONS AG, priority 2013, dated 2017).

What was measured:
Assay type in all cases: in vivo
[1] = tested on: crabgrass; experiment: Test Example 4: weedkilling efficacy by foliar treatment; D: crabgrass; settings: treatment dosage 315 g/ha
Summary of the method: (§1)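 Seeds are spot-sown into sterilized diluvial soil and covered with about 1.5 cm of soil. After 14 days' greenhouse growth at 25 to 30° C, plants are sprayed on stems and leaves with diluted emulsion at the stated g/ha rate, then scored at 3 weeks.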

[2] = tested on: birds-eye speedwell; experiment: Test Example 3: weedkilling efficacy through soil treatment; p: birds-eye speedwell; settings: treatment dosage 315 g/ha
Summary of the method: (§2)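 Crop and weed responses were judged three weeks after a uniform surface spray of the water-diluted emulsion at the given g/ha rate. Seeds sat beneath about 1.5 cm of sterilized diluvial soil, and boxes stood in a greenhouse at 25 to 30° C.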

[3] = tested on: redroot pigweed; experiment: Test Example 3: weedkilling efficacy through soil treatment; L: redroot pigweed; settings: treatment dosage 315 g/ha
Summary of the method: as §2

[4] = tested on: beet; experiment: Test Example 4: foliar treatment, effect on crop; f: beet; settings: treatment dosage 315 g/ha
Summary of the method: as §1

[5] = tested on: Italian ryegrass; experiment: Test Example 3: weedkilling efficacy through soil treatment; I: Italian ryegrass; settings: treatment dosage 315 g/ha
Summary of the method: as §2

[6] = tested on: soybean; experiment: Test Example 3: soil treatment, effect on crop; d: soybean; settings: treatment dosage 315 g/ha
Summary of the method: as §2

[7] = tested on: catchweed; experiment: Test Example 4: weedkilling efficacy by foliar treatment; O: catchweed; settings: treatment dosage 315 g/ha
Summary of the method: as §1

[8] = tested on: corn; experiment: Test Example 4: foliar treatment, effect on crop; c: corn; settings: treatment dosage 315 g/ha
Summary of the method: as §1

[9] = tested on: wheat; experiment: Test Example 4: foliar treatment, effect on crop; e: wheat; settings: treatment dosage 315 g/ha
Summary of the method: as §1

[10] = tested on: directly sown rice; experiment: Test Example 3: soil treatment, effect on crop; b: directly sown rice; settings: treatment dosage 315 g/ha
Summary of the method: as §2

[11] = tested on: Indian mallow; experiment: Test Example 3: weedkilling efficacy through soil treatment; K: Indian mallow; settings: treatment dosage 315 g/ha
Summary of the method: as §2

[12] = tested on: chickweed; experiment: Test Example 4: weedkilling efficacy by foliar treatment; N: chickweed; settings: treatment dosage 315 g/ha
Summary of the method: as §1

[13] = tested on: crabgrass; experiment: Test Example 3: weedkilling efficacy through soil treatment; D: crabgrass; settings: treatment dosage 315 g/ha
Summary of the method: as §2

[14] = tested on: birds-eye speedwell; experiment: Test Example 4: weedkilling efficacy by foliar treatment; p: birds-eye speedwell; settings: treatment dosage 315 g/ha
Summary of the method: as §1

[15] = tested on: fig-leafed goosefoot; experiment: Test Example 3: weedkilling efficacy through soil treatment; M: fig-leafed goosefoot; settings: treatment dosage 315 g/ha
Summary of the method: as §2

[16] = tested on: redroot pigweed; experiment: Test Example 4: weedkilling efficacy by foliar treatment; L: redroot pigweed; settings: treatment dosage 315 g/ha
Summary of the method: as §1

[17] = tested on: corn; experiment: Test Example 3: soil treatment, effect on crop; c: corn; settings: treatment dosage 315 g/ha
Summary of the method: as §2

[18] = tested on: bulrush; experiment: Test Example 2: weedkilling efficacy, growth period weed treatment in the submerged state; B: bulrush; settings: treatment dosage 252 g/ha
Summary of the method: (§3)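 Barnyard grass, bulrush and oval-leafed pondweed sown in alluvial soil under 4 cm flooding, greenhouse 25 to 30° C. At 1-2 leaf stage, water-diluted emulsion applied to the water surface at stated g/ha dosages; effects scored 3 weeks later.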

[19] = tested on: chickweed; experiment: Test Example 3: weedkilling efficacy through soil treatment; N: chickweed; settings: treatment dosage 315 g/ha
Summary of the method: as §2

[20] = tested on: Indian mallow; experiment: Test Example 4: weedkilling efficacy by foliar treatment; K: Indian mallow; settings: treatment dosage 315 g/ha
Summary of the method: as §1

[21] = tested on: wheat; experiment: Test Example 3: soil treatment, effect on crop; e: wheat; settings: treatment dosage 315 g/ha
Summary of the method: as §2

[22] = tested on: soybean; experiment: Test Example 4: foliar treatment, effect on crop; d: soybean; settings: treatment dosage 315 g/ha
Summary of the method: as §1

[23] = tested on: fig-leafed goosefoot; experiment: Test Example 4: weedkilling efficacy by foliar treatment; M: fig-leafed goosefoot; settings: treatment dosage 315 g/ha
Summary of the method: as §1

[24] = tested on: green foxtail; experiment: Test Example 3: weedkilling efficacy through soil treatment; E: green foxtail; settings: treatment dosage 315 g/ha
Summary of the method: as §2

[25] = tested on: oval-leafed pondweed; experiment: Test Example 1: weedkilling efficacy, preemergent weed treatment in the submerged state; C: oval-leafed pondweed; settings: treatment dosage 252 g/ha
Summary of the method: (§4)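 Visual scores against set criteria were taken 3 weeks after treatment. Compounds, as diluted emulsions at specified g/ha, went onto the water surface of 4 cm-flooded alluvial soil pots on the day weeds were sown and 2.5-leaf rice was transplanted; greenhouse held 25–30 °C.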

[26] = tested on: barnyard grass; experiment: Test Example 2: weedkilling efficacy, growth period weed treatment in the submerged state; A: barnyard grass; settings: treatment dosage 252 g/ha
Summary of the method: as §3

[27] = tested on: black-grass; experiment: Test Example 4: weedkilling efficacy by foliar treatment; H: black-grass; settings: treatment dosage 315 g/ha
Summary of the method: as §1

[28] = tested on: oval-leafed pondweed; experiment: Test Example 2: weedkilling efficacy, growth period weed treatment in the submerged state; C: oval-leafed pondweed; settings: treatment dosage 252 g/ha
Summary of the method: as §3

[29] = tested on: Italian ryegrass; experiment: Test Example 4: weedkilling efficacy by foliar treatment; I: Italian ryegrass; settings: treatment dosage 315 g/ha
Summary of the method: as §1

[30] = tested on: black-grass; experiment: Test Example 3: weedkilling efficacy through soil treatment; H: black-grass; settings: treatment dosage 315 g/ha
Summary of the method: as §2

[31] = tested on: transplanted rice; experiment: Test Example 1: preemergent weed treatment in the submerged state, effect on crop; a: transplanted rice; settings: treatment dosage 252 g/ha
Summary of the method: as §4

[32] = tested on: directly sown rice; experiment: Test Example 4: foliar treatment, effect on crop; b: directly sown rice; settings: treatment dosage 315 g/ha
Summary of the method: as §1

[33] = tested on: green foxtail; experiment: Test Example 4: weedkilling efficacy by foliar treatment; E: green foxtail; settings: treatment dosage 315 g/ha
Summary of the method: as §1

[34] = tested on: barnyard grass; experiment: Test Example 1: weedkilling efficacy, preemergent weed treatment in the submerged state; A: barnyard grass; settings: treatment dosage 252 g/ha
Summary of the method: as §4

[35] = tested on: wild oat; experiment: Test Example 3: weedkilling efficacy through soil treatment; G: wild oat; settings: treatment dosage 315 g/ha
Summary of the method: as §2

[36] = tested on: bulrush; experiment: Test Example 1: weedkilling efficacy, preemergent weed treatment in the submerged state; B: bulrush; settings: treatment dosage 252 g/ha
Summary of the method: as §4

[37] = tested on: beet; experiment: Test Example 3: soil treatment, effect on crop; f: beet; settings: treatment dosage 315 g/ha
Summary of the method: as §2

Structure (SMILES)	D (crabgrass) weedkilling efficacy grade [1]	P (birds-eye speedwell) weedkilling efficacy grade [2]	L (redroot pigweed) weedkilling efficacy grade [3]	f (beet) effect on crop grade [4]	I (Italian ryegrass) weedkilling efficacy grade [5]	d (soybean) effect on crop grade [6]	O (catchweed) weedkilling efficacy grade [7]	c (corn) effect on crop grade [8]	e (wheat) effect on crop grade [9]	b (directly sown rice) effect on crop grade [10]	K (Indian mallow) weedkilling efficacy grade [11]	N (chickweed) weedkilling efficacy grade [12]	D (crabgrass) weedkilling efficacy grade [13]	P (birds-eye speedwell) weedkilling efficacy grade [14]	M (fig-leafed goosefoot) weedkilling efficacy grade [15]	L (redroot pigweed) weedkilling efficacy grade [16]	c (corn) effect on crop grade [17]	B (bulrush) weedkilling efficacy grade [18]	N (chickweed) weedkilling efficacy grade [19]	K (Indian mallow) weedkilling efficacy grade [20]	also measured
CC1=C(c2ccsc2)C(=O)N(C(C)(C)C(=O)Nc2nc(C(C)C)ns2)CO1 [B-1-03]	4 (weed kill ratio 70% or more, less than 90%)	5 (weed kill ratio 90% or more, (practically complete withering))	4 (weed kill ratio 70% or more, less than 90%)	3 (weed kill ratio 40% or more, less than 70%)	5 (weed kill ratio 90% or more, (practically complete withering))	0 (weed kill ratio 5% or less (practically no effect))	3 (weed kill ratio 40% or more, less than 70%)	2 (weed kill ratio 20% or more, less than 40%)	0 (weed kill ratio 5% or less (practically no effect))	5 (weed kill ratio 90% or more, (practically complete withering))	4 (weed kill ratio 70% or more, less than 90%)	3 (weed kill ratio 40% or more, less than 70%)	5 (weed kill ratio 90% or more, (practically complete withering))	4 (weed kill ratio 70% or more, less than 90%)	5 (weed kill ratio 90% or more, (practically complete withering))	4 (weed kill ratio 70% or more, less than 90%)	0 (weed kill ratio 5% or less (practically no effect))	5 (weed kill ratio 90% or more, (practically complete withering))	3 (weed kill ratio 40% or more, less than 70%)	4 (weed kill ratio 70% or more, less than 90%)	e (wheat) effect on crop grade [21]: 3 (weed kill ratio 40% or more, less than 70%); d (soybean) effect on crop grade [22]: 4 (weed kill ratio 70% or more, less than 90%); M (fig-leafed goosefoot) weedkilling efficacy grade [23]: 5 (weed kill ratio 90% or more, (practically complete withering)); E (green foxtail) weedkilling efficacy grade [24]: 5 (weed kill ratio 90% or more, (practically complete withering)); C (oval-leafed pondweed) weedkilling efficacy grade [25]: 5 (weed kill ratio 90% or more, (practically complete withering)); A (barnyard grass) weedkilling efficacy grade [26]: 5 (weed kill ratio 90% or more, (practically complete withering)); H (black-grass) weedkilling efficacy grade [27]: 5 (weed kill ratio 90% or more, (practically complete withering)); C (oval-leafed pondweed) weedkilling efficacy grade [28]: 5 (weed kill ratio 90% or more, (practically complete withering)); I (Italian ryegrass) weedkilling efficacy grade [29]: 5 (weed kill ratio 90% or more, (practically complete withering)); H (black-grass) weedkilling efficacy grade [30]: 5 (weed kill ratio 90% or more, (practically complete withering)); a (transplanted rice) effect on crop grade [31]: 3 (weed kill ratio 40% or more, less than 70%); b (directly sown rice) effect on crop grade [32]: 4 (weed kill ratio 70% or more, less than 90%); E (green foxtail) weedkilling efficacy grade [33]: 4 (weed kill ratio 70% or more, less than 90%); A (barnyard grass) weedkilling efficacy grade [34]: 5 (weed kill ratio 90% or more, (practically complete withering)); G (wild oat) weedkilling efficacy grade [35]: 5 (weed kill ratio 90% or more, (practically complete withering)); B (bulrush) weedkilling efficacy grade [36]: 5 (weed kill ratio 90% or more, (practically complete withering)); f (beet) effect on crop grade [37]: 3 (weed kill ratio 40% or more, less than 70%)
CC1=C(c2ccsc2)C(=O)N(C(C)(C)C(=O)Nc2cccc(Br)n2)CO1 [B-2-06]	5 (weed kill ratio 90% or more, (practically complete withering))	5 (weed kill ratio 90% or more, (practically complete withering))	5 (weed kill ratio 90% or more, (practically complete withering))	4 (weed kill ratio 70% or more, less than 90%)	5 (weed kill ratio 90% or more, (practically complete withering))	2 (weed kill ratio 20% or more, less than 40%)	4 (weed kill ratio 70% or more, less than 90%)	1 (weed kill ratio 5% or more, less than 20%)	4 (weed kill ratio 70% or more, less than 90%)	5 (weed kill ratio 90% or more, (practically complete withering))	4 (weed kill ratio 70% or more, less than 90%)	4 (weed kill ratio 70% or more, less than 90%)	5 (weed kill ratio 90% or more, (practically complete withering))	5 (weed kill ratio 90% or more, (practically complete withering))	5 (weed kill ratio 90% or more, (practically complete withering))	5 (weed kill ratio 90% or more, (practically complete withering))	0 (weed kill ratio 5% or less (practically no effect))	5 (weed kill ratio 90% or more, (practically complete withering))	4 (weed kill ratio 70% or more, less than 90%)	3 (weed kill ratio 40% or more, less than 70%)	e (wheat) effect on crop grade [21]: 5 (weed kill ratio 90% or more, (practically complete withering)); d (soybean) effect on crop grade [22]: 4 (weed kill ratio 70% or more, less than 90%); M (fig-leafed goosefoot) weedkilling efficacy grade [23]: 4 (weed kill ratio 70% or more, less than 90%); E (green foxtail) weedkilling efficacy grade [24]: 5 (weed kill ratio 90% or more, (practically complete withering)); C (oval-leafed pondweed) weedkilling efficacy grade [25]: 5 (weed kill ratio 90% or more, (practically complete withering)); A (barnyard grass) weedkilling efficacy grade [26]: 5 (weed kill ratio 90% or more, (practically complete withering)); H (black-grass) weedkilling efficacy grade [27]: 5 (weed kill ratio 90% or more, (practically complete withering)); C (oval-leafed pondweed) weedkilling efficacy grade [28]: 5 (weed kill ratio 90% or more, (practically complete withering)); I (Italian ryegrass) weedkilling efficacy grade [29]: 5 (weed kill ratio 90% or more, (practically complete withering)); H (black-grass) weedkilling efficacy grade [30]: 5 (weed kill ratio 90% or more, (practically complete withering)); a (transplanted rice) effect on crop grade [31]: 4 (weed kill ratio 70% or more, less than 90%); b (directly sown rice) effect on crop grade [32]: 5 (weed kill ratio 90% or more, (practically complete withering)); E (green foxtail) weedkilling efficacy grade [33]: 5 (weed kill ratio 90% or more, (practically complete withering)); A (barnyard grass) weedkilling efficacy grade [34]: 5 (weed kill ratio 90% or more, (practically complete withering)); G (wild oat) weedkilling efficacy grade [35]: 5 (weed kill ratio 90% or more, (practically complete withering)); B (bulrush) weedkilling efficacy grade [36]: 5 (weed kill ratio 90% or more, (practically complete withering)); f (beet) effect on crop grade [37]: 5 (weed kill ratio 90% or more, (practically complete withering))
